Assay results as given in US10800791B2, “Triazole ACC inhibitors and uses thereof” (Gilead Apollo, LLC, priority 2015, dated 2020).
In brackets after ≈: the same amount, converted by molar mass. Read-outs that look alike come from different tables or passages of the source.

Key:
C. albicans = assay: Antifungal Activity Assay (broth microtiter MIC), C. albicans; assay type: cell-based, Candida albicans; conditions: Candida albicans, ATCC90028, 48 h
In short: (§1)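 CLSI M27-A3 microdilution; RPMI 1640+MOPS; 2.5×10^3 CFU/mL final inoculum; cultures from Sabouraud dextrose agar, 35° C overnight; compound working solution 128 μg/mL from 1 mg/mL DMSO stock; visual MIC at 48 h vs growth control.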

C. krusei = assay: Antifungal Activity Assay (broth microtiter MIC), C. krusei; assay type: cell-based, Candida krusei; conditions: Pichia kudriavzevii, ATCC6258, 48 h
In short: as §1

C. parapsilosis = assay: Antifungal Activity Assay (broth microtiter MIC), C. parapsilosis; assay type: cell-based, Candida parapsilosis; conditions: Lodderomyces parapsilosis, ATCC22019, 48 h
In short: as §1

Botrtyis cinerea (Bc) = assay: Growth inhibition assay of fungal pathogens, Bc; assay type: cell-based; conditions: 48 h
In short: (§2)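 Spores from sub-cultured plates were diluted in 17% V8 liquid medium and exposed to compound from DMSO stocks at final concentrations of 50, 10 and 2 ppm or 2, 0.4 and 0.08 ppm. OD600 and visual ratings at 48 h were compared with the 2% DMSO control to give percent growth inhibition.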

[1] = system: Collectotrichum graminicola (Cg); assay: Growth inhibition assay of fungal pathogens, Cg; assay type: cell-based; conditions: 48 h
In short: as §2

Diplodia maydis (Dm) = assay: Growth inhibition assay of fungal pathogens, Dm; assay type: cell-based; conditions: Stenocarpella maydis, 48 h
In short: as §2

[2] = system: Fusarium moniliforme (Fm); assay: Growth inhibition assay of fungal pathogens, Fm; assay type: cell-based; conditions: for IC90: Fusarium verticillioides, 48 h, read-out: Concentration at 90% Inhibition Fm
In short: as §2

[3] = system: Fusarium virguliforme (Fv); assay: Growth inhibition assay of fungal pathogens, Fv; assay type: cell-based; conditions: 48 h
In short: as §2

[4] = system: Phytophthora capsici (Pc); assay: Growth inhibition assay of fungal pathogens, Pc; assay type: cell-based; conditions: 48 h
In short: as §2

Septoria tritici (St) = assay: Growth inhibition assay of fungal pathogens, St; assay type: cell-based; conditions: Zymoseptoria tritici, 48 h
In short: as §2

fungal (fACC2) = fungal (fACC2) (UniProt Q00955); conditions: read-out: fACC2 (in vitro ACC2 Inhibition Assay, IC50), ADP-Glo, 5 nM ACC2, 20 μM ATP, 20 μM acetyl-CoA
Sequence of fungal (fACC2) (Q00955 whole entry): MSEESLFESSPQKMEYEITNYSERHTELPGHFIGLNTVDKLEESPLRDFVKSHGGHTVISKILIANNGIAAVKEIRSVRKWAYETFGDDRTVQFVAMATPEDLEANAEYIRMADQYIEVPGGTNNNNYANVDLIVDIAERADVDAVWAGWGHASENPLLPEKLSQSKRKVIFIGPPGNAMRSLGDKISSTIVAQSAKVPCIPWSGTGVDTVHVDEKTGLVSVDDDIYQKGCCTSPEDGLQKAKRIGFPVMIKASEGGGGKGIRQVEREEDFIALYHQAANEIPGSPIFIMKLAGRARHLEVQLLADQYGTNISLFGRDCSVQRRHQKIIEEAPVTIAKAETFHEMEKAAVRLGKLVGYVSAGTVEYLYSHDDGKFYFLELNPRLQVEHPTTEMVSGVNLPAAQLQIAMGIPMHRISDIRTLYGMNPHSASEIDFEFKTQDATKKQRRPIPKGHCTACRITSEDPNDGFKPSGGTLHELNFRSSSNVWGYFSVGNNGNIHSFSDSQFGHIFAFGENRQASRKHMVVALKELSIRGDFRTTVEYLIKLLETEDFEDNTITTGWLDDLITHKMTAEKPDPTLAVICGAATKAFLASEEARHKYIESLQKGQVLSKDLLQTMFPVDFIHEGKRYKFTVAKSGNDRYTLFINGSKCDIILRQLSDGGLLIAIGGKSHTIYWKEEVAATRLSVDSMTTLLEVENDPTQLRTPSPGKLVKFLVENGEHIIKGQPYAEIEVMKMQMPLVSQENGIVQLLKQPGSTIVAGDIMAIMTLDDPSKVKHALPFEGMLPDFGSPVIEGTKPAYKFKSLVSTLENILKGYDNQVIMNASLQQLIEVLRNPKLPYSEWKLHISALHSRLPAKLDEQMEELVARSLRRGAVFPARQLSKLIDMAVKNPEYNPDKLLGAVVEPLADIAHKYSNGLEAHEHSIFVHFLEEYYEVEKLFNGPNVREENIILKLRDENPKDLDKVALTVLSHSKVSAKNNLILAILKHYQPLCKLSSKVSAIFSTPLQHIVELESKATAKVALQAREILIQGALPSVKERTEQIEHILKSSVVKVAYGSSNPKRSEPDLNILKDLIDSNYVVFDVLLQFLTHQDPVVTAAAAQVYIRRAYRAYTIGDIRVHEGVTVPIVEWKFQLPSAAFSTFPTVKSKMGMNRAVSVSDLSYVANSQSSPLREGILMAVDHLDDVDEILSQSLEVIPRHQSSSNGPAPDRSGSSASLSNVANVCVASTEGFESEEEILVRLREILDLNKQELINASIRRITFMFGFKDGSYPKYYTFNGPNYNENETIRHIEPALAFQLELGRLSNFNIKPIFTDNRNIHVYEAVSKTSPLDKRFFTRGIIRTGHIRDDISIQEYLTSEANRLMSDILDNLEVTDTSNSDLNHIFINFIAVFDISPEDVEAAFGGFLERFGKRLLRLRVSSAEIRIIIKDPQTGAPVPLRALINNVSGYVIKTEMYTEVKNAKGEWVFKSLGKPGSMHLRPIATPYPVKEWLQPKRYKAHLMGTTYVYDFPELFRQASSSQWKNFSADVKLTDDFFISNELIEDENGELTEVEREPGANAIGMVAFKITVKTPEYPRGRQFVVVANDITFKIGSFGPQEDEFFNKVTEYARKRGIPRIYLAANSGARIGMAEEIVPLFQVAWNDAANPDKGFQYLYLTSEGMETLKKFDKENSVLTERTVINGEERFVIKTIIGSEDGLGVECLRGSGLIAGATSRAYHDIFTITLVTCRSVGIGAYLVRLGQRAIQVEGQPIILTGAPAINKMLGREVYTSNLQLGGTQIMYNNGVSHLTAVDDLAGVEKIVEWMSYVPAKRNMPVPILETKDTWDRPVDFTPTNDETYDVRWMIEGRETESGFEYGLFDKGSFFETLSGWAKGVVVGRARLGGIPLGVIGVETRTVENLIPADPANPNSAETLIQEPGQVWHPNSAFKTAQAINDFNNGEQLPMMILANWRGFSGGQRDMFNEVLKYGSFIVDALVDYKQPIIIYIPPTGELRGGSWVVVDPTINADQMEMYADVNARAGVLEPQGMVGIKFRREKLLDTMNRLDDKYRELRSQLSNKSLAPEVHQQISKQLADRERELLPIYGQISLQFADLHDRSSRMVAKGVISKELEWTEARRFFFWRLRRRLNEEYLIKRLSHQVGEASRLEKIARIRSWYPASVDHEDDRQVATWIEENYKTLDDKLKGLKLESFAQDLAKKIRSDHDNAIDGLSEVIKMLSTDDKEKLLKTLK

[5] = Fusarium moniliforme, growth inhibition at 48 hours vs 2% DMSO control

Q: What does the source list for COc1ccc(F)cc1[C@H](Cn1c(=O)n(CC(=O)NC(C)C)c(=O)c2c(C)c(-n3nccn3)sc21)OCCO [Compound I-82, (R)-2-(1-(2-(5-fluoro-2-methoxyphenyl)-2-(2-hydroxy-ethoxy)ethyl)-5-methyl-2,4-dioxo-6-(2H-1,2,3-triazol-2-yl)-1,4-dihydro-thieno[2,3-d]pyrimidin-3(2H)-yl)-N-isopropylacetamide]?
A: MIC (C. albicans; read-out: MIC, C. albicans ATCC 90028, Table 3a, 3 replicates, MIC recorded at 48 h): 2.1 to 4 µg/mL (≈ 3.75 to 7.14 µM); MIC (C. albicans; read-out: MIC, C. albicans ATCC 90028, Table 3b (additional results), 3 replicates, MIC recorded at 48 h): 2.01 to 4 µg/mL (≈ 3.59 to 7.14 µM); MIC (C. krusei; read-out: MIC, C. krusei ATCC 6258, Table 3a, 3 replicates, MIC recorded at 48 h): 2.1 to 4 µg/mL (≈ 3.75 to 7.14 µM); MIC (C. krusei; read-out: MIC, C. krusei ATCC 6258, Table 3b (additional results), 3 replicates, MIC recorded at 48 h): 2.01 to 4 µg/mL (≈ 3.59 to 7.14 µM); MIC (C. parapsilosis; read-out: MIC, C. parapsilosis ATCC 22019, Table 3a, 3 replicates, MIC recorded at 48 h): 2.1 to 4 µg/mL (≈ 3.75 to 7.14 µM); MIC (C. parapsilosis; read-out: MIC, C. parapsilosis ATCC 22019, Table 3b (additional results), 3 replicates, MIC recorded at 48 h): 2.01 to 4 µg/mL (≈ 3.59 to 7.14 µM); IC90 (Botrtyis cinerea (Bc); read-out: Concentration at 90% Inhibition Bc, Botrtyis cinerea, growth inhibition at 48 hours vs 2% DMSO control): 2 µg/mL (≈ 3.57 µM); IC90 (Botrtyis cinerea (Bc); read-out: Concentration at 90% Inhibition Bc, Botrtyis cinerea, growth inhibition vs 2% DMSO control at 48 hours): 2 µg/mL (≈ 3.57 µM); IC90 ([1]; read-out: Concentration at 90% Inhibition Cg, Collectotrichum graminicola, growth inhibition at 48 hours vs 2% DMSO control): 2 µg/mL (≈ 3.57 µM); IC90 ([1]; read-out: Concentration at 90% Inhibition Cg, Collectotrichum graminicola, growth inhibition vs 2% DMSO control at 48 hours): 2 µg/mL (≈ 3.57 µM); IC90 (Diplodia maydis (Dm); read-out: Concentration at 90% Inhibition Dm, Diplodia maydis, growth inhibition at 48 hours vs 2% DMSO control): > 50 µg/mL; IC90 (Diplodia maydis (Dm); read-out: Concentration at 90% Inhibition Dm, Diplodia maydis, growth inhibition vs 2% DMSO control at 48 hours): > 50 µg/mL; Concentration at 90% Inhibition Fm [2, 5]: AA (compound concentration of 0.08 ppm at 90% inhibition of fungal pathogens); IC90 [2]: 0.08 µg/mL (≈ 0.143 µM); IC90 ([3]; read-out: Concentration at 90% Inhibition Fv, Fusarium virguliforme, growth inhibition at 48 hours vs 2% DMSO control): 2 µg/mL (≈ 3.57 µM); IC90 ([3]; read-out: Concentration at 90% Inhibition Fv, Fusarium virguliforme, growth inhibition vs 2% DMSO control at 48 hours): 2 µg/mL (≈ 3.57 µM); IC90 ([4]; read-out: Concentration at 90% Inhibition Pc, Phytophthora capsici, growth inhibition at 48 hours vs 2% DMSO control): > 50 µg/mL; IC90 ([4]; read-out: Concentration at 90% Inhibition Pc, Phytophthora capsici, growth inhibition vs 2% DMSO control at 48 hours): > 50 µg/mL; IC90 (Septoria tritici (St); read-out: Concentration at 90% Inhibition St, Septoria tritici, growth inhibition at 48 hours vs 2% DMSO control): > 50 µg/mL; IC90 (Septoria tritici (St); read-out: Concentration at 90% Inhibition St, Septoria tritici, growth inhibition vs 2% DMSO control at 48 hours): > 50 µg/mL; IC50 (fungal (fACC2); Table 2a): 1 to 5 nM; IC50 (fungal (fACC2); Table 2b, additional results): 1 to 5 nM

Q: Which MIC (C. albicans; Table 3a, ATCC 90028, 3 replicates, MIC recorded at 48 h, read-out: MIC, C. albicans ATCC 90028) does the source give for COc1ccc(F)cc1[C@H](Cn1c(=O)n([C@H](C)C(=O)NC2CCC2)c(=O)c2c(C)c(-n3nccn3)sc21)OCCO [Compound I-84, (R)—N-cyclobutyl-2-(1-((R)-2-(5-fluoro-2-methoxyphenyl)-2-(2-hydroxyethoxy)ethyl)-5-methyl-2,4-dioxo-6-(2H-1,2,3-triazol-2-yl)-1,4-dihydrothieno[2,3-d]pyrimidin-3(2H)-yl)propanamide] here?
A: Its MIC is 1.1 to 2 µg/mL (≈ 1.88 to 3.41 µM).

Q: What about the MIC (C. albicans; Table 3b (additional results), ATCC 90028, 3 replicates, MIC recorded at 48 h, read-out: MIC, C. albicans ATCC 90028) of the same compound?
A: Its MIC is 2.01 to 4 µg/mL (≈ 3.43 to 6.82 µM).

Q: And the MIC (C. krusei; Table 3a, ATCC 6258, 3 replicates, MIC recorded at 48 h, read-out: MIC, C. krusei ATCC 6258)?
A: The MIC was 0.25 to 1 µg/mL (≈ 0.426 to 1.7 µM).

Q: And the MIC (C. krusei; Table 3b (additional results), ATCC 6258, 3 replicates, MIC recorded at 48 h, read-out: MIC, C. krusei ATCC 6258)?
A: Its MIC is 0.25 to 1 µg/mL (≈ 0.426 to 1.7 µM).

Q: And the MIC (C. parapsilosis; Table 3a, ATCC 22019, 3 replicates, MIC recorded at 48 h, read-out: MIC, C. parapsilosis ATCC 22019)?
A: Its MIC is 0.25 to 1 µg/mL (≈ 0.426 to 1.7 µM).

Q: And the MIC (C. parapsilosis; Table 3b (additional results), ATCC 22019, 3 replicates, MIC recorded at 48 h, read-out: MIC, C. parapsilosis ATCC 22019)?
A: The MIC was 0.25 to 1 µg/mL (≈ 0.426 to 1.7 µM).

Q: What about the IC90 (Botrtyis cinerea (Bc); Botrtyis cinerea, growth inhibition at 48 hours vs 2% DMSO control, read-out: Concentration at 90% Inhibition Bc) of the same compound?
A: The IC90 was 0.4 µg/mL (≈ 0.682 µM).

Q: And the IC90 (Botrtyis cinerea (Bc); Botrtyis cinerea, growth inhibition vs 2% DMSO control at 48 hours, read-out: Concentration at 90% Inhibition Bc)?
A: Its IC90 is 0.4 µg/mL (≈ 0.682 µM).

Q: What about the IC90 ([1]; Collectotrichum graminicola, growth inhibition at 48 hours vs 2% DMSO control, read-out: Concentration at 90% Inhibition Cg) of the same compound?
A: Its IC90 is 0.08 µg/mL (≈ 0.136 µM).

Q: What about the IC90 ([1]; Collectotrichum graminicola, growth inhibition vs 2% DMSO control at 48 hours, read-out: Concentration at 90% Inhibition Cg) of the same compound?
A: The IC90 was 0.08 µg/mL (≈ 0.136 µM).

Q: What about the IC90 (Diplodia maydis (Dm); Diplodia maydis, growth inhibition at 48 hours vs 2% DMSO control, read-out: Concentration at 90% Inhibition Dm) of the same compound?
A: Its IC90 is 0.4 µg/mL (≈ 0.682 µM).

Q: What about the IC90 (Diplodia maydis (Dm); Diplodia maydis, growth inhibition vs 2% DMSO control at 48 hours, read-out: Concentration at 90% Inhibition Dm) of the same compound?
A: The IC90 was 0.4 µg/mL (≈ 0.682 µM).

Q: What about the IC90 [2, 5] of the same compound?
A: The IC90 was 0.08 µg/mL (≈ 0.136 µM).

Q: What about the IC90 ([2]; Fusarium moniliforme, growth inhibition vs 2% DMSO control at 48 hours) of the same compound?
A: Its IC90 is 0.08 µg/mL (≈ 0.136 µM).

Q: And the IC90 ([3]; growth inhibition at 48 hours vs 2% DMSO control, read-out: Concentration at 90% Inhibition Fv)?
A: The IC90 was 0.4 µg/mL (≈ 0.682 µM).

Q: What about the IC90 ([3]; growth inhibition vs 2% DMSO control at 48 hours, read-out: Concentration at 90% Inhibition Fv) of the same compound?
A: The IC90 was 0.4 µg/mL (≈ 0.682 µM).

Q: What about the IC90 ([4]; growth inhibition at 48 hours vs 2% DMSO control, read-out: Concentration at 90% Inhibition Pc) of the same compound?
A: Its IC90 is 2 µg/mL (≈ 3.41 µM).

Q: And the IC90 ([4]; growth inhibition vs 2% DMSO control at 48 hours, read-out: Concentration at 90% Inhibition Pc)?
A: Its IC90 is 2 µg/mL (≈ 3.41 µM).

Q: And the IC90 (Septoria tritici (St); Septoria tritici, growth inhibition at 48 hours vs 2% DMSO control, read-out: Concentration at 90% Inhibition St)?
A: The IC90 was 2 µg/mL (≈ 3.41 µM).

Q: And the IC90 (Septoria tritici (St); Septoria tritici, growth inhibition vs 2% DMSO control at 48 hours, read-out: Concentration at 90% Inhibition St)?
A: Its IC90 is 10 µg/mL (≈ 17 µM).

Q: What about the IC50 (fungal (fACC2); Table 2a) of the same compound?
A: The IC50 was 0.4 to 1 nM.

Q: And the IC50 (fungal (fACC2); Table 2b, additional results)?
A: The IC50 was 0.3 to 1 nM.
